Results on two molecules are retold here after patent US8158593B2, “GPR17 modulators, method of screening and uses thereof” (Universita' degli Studi di Milano, priority 2004, dated 2012).

The target of one series is T1, rat GPR17 (Rattus norvegicus, UniProt Q09QM4).
T1 construct: expressed in transfected cells; host or cells: 1321N1; pcDNA3.1
Description: [35S]GTPγS binding to membranes of 1321N1 cells expressing rat GPR17. Type of series: biochemical. The note with it: agonist; 1321N1 cells expressing rat GPR17. As for the experimental part: (§1) [^35S]GTPγS Binding Assay. 1321N1 cells, COS-7 and HEK-293 cells (control and transfected cells) were homogenized in 5 mM TRIS-HCl, 2 mM EDTA, pH 7.4 and centrifuged at 48000 g for 15 min at 4° C. The resulting pellets (plasma membranes) were washed in 50 mM TRIS-HCl, 10 mM MgCl2, pH 7.4 and stored at −80° C. until used. Measurement of nucleotide-stimulated [^35S]GTPγS binding to membranes of cells expressing the human or rat GPR17 receptor was performed as previously described^9-11.
To identify the endogenous ligand of GPR17, the cDNAs from human and rat GPR17 were cloned into the mammalian expression vector pcDNA3.1 and transfected in 1321N1, COS-7 and HEK-293 cells for functional characterization. GPR17 activation was assessed by testing the ability of exogenously-added ligands to increase [^35S]GTPγS binding to purified membranes obtained from transfected cells^9-11. […] The specificity of GPR17 responses were also challenged by assessing the ability of some purinergic and leukotriene receptor antagonists to counteract the increase of [^35S]GTPγS binding evoked by nucleotides and cys-LTs in 1321N1 cells expressing either the human or rat receptor. […] Because both P2Y^2,11,12 and CysLT receptors^3,13 may couple to G proteins of the Gi subfamily, to evaluate the involvement of this class of G-proteins, we preincubated 1321N1 cells expressing hGPR17 with pertussis toxin (PTX) which inactivates Gi proteins, prior to membrane preparation and [^35S]GTPγS binding.
Table 1. Potency of various ligands on [^35S]GTPγS binding to membranes obtaind from 1321N1 cells-transfected with human or rat GPR17. […] All data represent the mean of triplicate determinations from 4-9 independent experiments.

Series [1] deals with T2, hGPR17 (Homo sapiens, UniProt Q13304). Description: Single cell calcium imaging in 1321N1 cells expressing hGPR17. Type of series: cell-based. Further details: expressed in transfected cells; host or cells: 1321N1 (A1, A5), COS-7 (A3, A6), HEK-293 (A4); pcDNA3.1. From the text: Polychrome IV (TILL Photonics, Germany) was used as light source. Fura-2 and EGFP fluorescence images were collected with a PCO Super […] (Axon Instruments, Forest City, Calif.) and analyzed with the Axon Imaging Workbench 2.2 software (Axon Instruments).

The target in series [2] is T2, hGPR17. Description: [35S]GTPγS binding, HEK-293 cells expressing hGPR17. Type of series: biochemical. The conditions noted are these: HEK-293 cells transfected with hGPR17. Further details: expressed in transfected cells; host or cells: HEK-293 (A4); pcDNA3.1. Here is the method: as §1
To identify the endogenous ligand of GPR17, the cDNAs from human and rat GPR17 were cloned into the mammalian expression vector pcDNA3.1 and transfected in 1321N1, COS-7 and HEK-293 cells for functional characterization. GPR17 activation was assessed by testing the ability of exogenously-added ligands to increase [^35S]GTPγS binding to purified membranes obtained from transfected cells^9-11. […] The specificity of GPR17 responses were also challenged by assessing the ability of some purinergic and leukotriene receptor antagonists to counteract the increase of [^35S]GTPγS binding evoked by nucleotides and cys-LTs in 1321N1 cells expressing either the human or rat receptor. […]

The subject of series [3] is ischemic brain damage (MCAo). Description: Permanent middle cerebral artery occlusion (MCAo), brain infarct size by MRI. The note with it: 400 ng/animal i.c.v. 48 and 24 h before and 10 min after MCAo. Type of series: in vivo, rat. Here is the method:
Quantitative analysis of infarct size volume at 24 and 48 h after MCAo from rats receiving vehicle (C1, n=5) or Mtk (2 mg/kg intravenously, i.v., 10 min after MCAO; n=6); vehicle (C2, n=5) or AR-C (4.5 μg/animal intracerebroventricularly, i.c.v., 10 min after MCAo, n=5), vehicle (C3, n=5) or either oligo616 or scrambled-oligo (400 ng/animal, i.c.v., 48, 24 before and 10 min after MCAo, n=5). Data are expressed as percentage variation of infarct volume at 24 and 48 hours after MCAo compared to 2 h considered as 100% (§ p<0.05, # p<0.01 vs volume at 2 hr; *p <0.05, **p<0.01 vs corresponding control evaluated at the same time point). Induction of focal brain ischemia in the rat. Male Sprague-Dawley rats (Charles River) underwent permanent middle cerebral artery occlusion (MCAo) as previously described^28,29. […] AR-C was utilized here to simply test the involvement of GPR17 in brain ischemia, and, being a very polar molecule which is likely to very poorly permeate the blood brain barrier, it was administered i.c.v. Oligo-616 and oligo-scramble (400 ng in 5 μl of physiological solution) were administered i.c.v three times to each rat 48, 24 h before and 10 minutes after MCAo. Control groups received corresponding vehicle i.c.v. Magnetic Resonance Imaging analysis. […]

The next series relates to rGPR17 mRNA. Description: Antisense down-regulation of rGPR17 mRNA in HEK-293 cells (RT-PCR). Type of series: cell-based, rat. The conditions noted are these: 0.3 μM, added 16 and 40 h after transfection. As for the experimental part: FIG. 4.1 Target sequences of synthesized anti-sense oligonucleotides on rGPR17 mRNA. (a) The various anti-sense sequences were named based on the rat coding sequence (GenBank accession No.: AC112062); black arrows indicate beginning and ending of the coding sequences. All oligonucleotides, including the “scrambled” sequence, were designed as described in Methods. All these sequences were tested in vitro on HEK-293 cells expressing rGPR17 in order to select the most appropriate oligonucleotides to be utilized for the in vivo studies. Two typical experiments are shown in (b), one aimed at assaying oligo616, oligo241 and oligo99, and the other one aimed at assaying oligoSTART and oligoEND, all in comparison with scrambled oligo sequences run in parallel. On day 2 after plating, cells were transfected with pcDNA3.1 containing the construct encoding for rGPR17 together with the neomycin resistance gene, here utilized as a reported gene. […] Twenty-four h after the last Fugene addition, RNA was extracted from cells as described in Methods, and the transcripts for both rGPR17 and the neomycin resistance gene determined as specific RT-PCR amplification products of 1079 and 357 bp, respectively, as indicated. […]

T2 sequence (Q13304 29-367): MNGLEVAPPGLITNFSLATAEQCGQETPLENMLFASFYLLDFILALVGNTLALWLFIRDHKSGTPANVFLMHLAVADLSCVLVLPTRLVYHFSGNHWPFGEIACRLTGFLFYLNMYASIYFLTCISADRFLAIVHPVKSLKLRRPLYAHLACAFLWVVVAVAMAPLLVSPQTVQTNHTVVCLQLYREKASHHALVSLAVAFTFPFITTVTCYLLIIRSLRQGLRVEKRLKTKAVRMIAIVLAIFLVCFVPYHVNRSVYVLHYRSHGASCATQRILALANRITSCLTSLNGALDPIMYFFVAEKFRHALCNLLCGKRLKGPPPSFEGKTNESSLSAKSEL
T1 sequence (Q09QM4 whole entry): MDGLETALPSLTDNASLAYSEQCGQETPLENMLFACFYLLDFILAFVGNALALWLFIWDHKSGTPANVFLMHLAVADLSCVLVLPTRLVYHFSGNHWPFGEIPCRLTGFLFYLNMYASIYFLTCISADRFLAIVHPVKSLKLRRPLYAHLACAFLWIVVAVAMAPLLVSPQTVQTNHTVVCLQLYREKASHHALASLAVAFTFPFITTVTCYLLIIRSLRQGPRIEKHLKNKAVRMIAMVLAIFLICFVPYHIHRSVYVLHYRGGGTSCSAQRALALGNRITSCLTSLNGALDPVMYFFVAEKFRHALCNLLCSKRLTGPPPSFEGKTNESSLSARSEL

At rat GPR17, `O=c1ccn([C@@H]2O[C@H](COP(=O)(O)OP(=O)(O)O)[C@@H](O)[C@H]2O)c(=O)[nH]1` [UDP] yielded an EC50 of 4.6 ± 0.6 µM. Moreover, the “cells showing rise of [Ca2+]i” value on hGPR17 [1] is “approximately 30%”. The “response in [35S]GTPγS binding” value at hGPR17 [2] was “induced responses”.

For the molecule “oligo616: antisense oligonucleotide designed on the sequence of rGPR17 mRNA, SEQ ID NO: 1, unmodified (antisense AACTGTACCGGGAGAAGGCC; unmodified DNA; listed as Rattus norvegicus)”, the “evolution of brain infarct size (MRI)” value in series [3] was “markedly and significantly attenuated infarct size evolution”. For the same molecule, in the series on rGPR17 mRNA, the “attenuation of rGPR17 mRNA / in vitro expression of rGPR17” value is on record as “able to attenuate rGPR17 mRNA”.
